Earlier results as cited in US10143659B2, “Melt-extruded release controlled pharmaceutical composition and oral dosage form comprising the same” (Samyang Biopharmaceuticals Corporation, priority 2012, dated 2018).

- solubility in methylene chloride, methanol and 0.1N hydrochloric acid (methylene chloride, methanol, 0.1N hydrochloric acid): well dissolved
- solubility in water (water): poorly soluble
Structure (SMILES): Cc1nc2n(c(=O)c1CCN1CCC(c3noc4cc(F)ccc34)CC1)CCCC2O (centres unmarked) [Paliperidone]
